According to patent publication EP4803142A2 (Kayothera Inc., priority 2021, dated 2022):

Columns and labels:
hALDH1a2 = target: T1, hALDH1a2 (Homo sapiens, UniProt O94788); assay: biochemical; conditions: read-out: hAldhla2 IC50
T1 construct: pET-Aldh1a2 transformed BL21-DE3 cultures; cell extracts
T1 sequence (O94788 1-518): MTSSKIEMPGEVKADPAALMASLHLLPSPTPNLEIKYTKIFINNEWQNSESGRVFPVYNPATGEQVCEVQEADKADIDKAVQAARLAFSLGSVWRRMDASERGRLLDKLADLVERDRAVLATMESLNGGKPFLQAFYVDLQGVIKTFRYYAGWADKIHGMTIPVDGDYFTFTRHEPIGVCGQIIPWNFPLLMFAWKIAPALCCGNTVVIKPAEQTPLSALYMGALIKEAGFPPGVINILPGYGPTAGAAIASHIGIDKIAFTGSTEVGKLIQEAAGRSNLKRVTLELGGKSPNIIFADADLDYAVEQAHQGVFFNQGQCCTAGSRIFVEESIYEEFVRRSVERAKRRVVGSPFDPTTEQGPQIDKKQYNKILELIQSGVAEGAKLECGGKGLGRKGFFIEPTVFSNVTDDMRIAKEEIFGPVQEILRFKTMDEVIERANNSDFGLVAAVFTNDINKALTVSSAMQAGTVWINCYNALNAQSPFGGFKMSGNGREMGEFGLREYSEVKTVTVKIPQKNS
Method: (§1) Biological Example 5C. Aldh1a2 Enzyme Inhibition Assay
(§2) Cell extracts were spun at 16000 x g for 5 minutes.
(§3) Recombinant enzyme and inhibitor added immediately before assay. Reaction rate measured by resorufin fluorescence. […]
(§4) Table 3B. IC50 values (nM) for inhibition of hALDH1a2 and mALDH1a2 of selected compounds

mALDH1a2 = target: T2, mALDH1a2 (Mus musculus, UniProt Q62148); assay: biochemical; conditions: read-out: mAldhla2 IC50
T2 construct: pET-Aldh1a2 transformed BL21-DE3 cultures; cell extracts
T2 sequence (Q62148 1-518): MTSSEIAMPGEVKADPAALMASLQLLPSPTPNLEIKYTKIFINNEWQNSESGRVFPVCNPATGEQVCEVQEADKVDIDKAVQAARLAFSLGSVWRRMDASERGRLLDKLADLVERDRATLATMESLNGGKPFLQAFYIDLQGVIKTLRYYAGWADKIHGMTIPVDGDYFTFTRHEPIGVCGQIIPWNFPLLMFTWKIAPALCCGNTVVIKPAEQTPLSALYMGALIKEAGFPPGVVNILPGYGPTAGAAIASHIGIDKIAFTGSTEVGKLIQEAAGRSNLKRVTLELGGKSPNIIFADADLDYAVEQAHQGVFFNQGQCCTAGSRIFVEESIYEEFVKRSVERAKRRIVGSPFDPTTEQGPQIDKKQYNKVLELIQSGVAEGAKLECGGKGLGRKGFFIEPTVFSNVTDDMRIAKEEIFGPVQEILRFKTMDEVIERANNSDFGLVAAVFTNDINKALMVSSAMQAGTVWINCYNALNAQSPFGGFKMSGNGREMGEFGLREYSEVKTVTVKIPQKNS
Method: as §1, §2, §3, §4

| Structure (SMILES) | IC50 (hALDH1a2) | IC50 (mALDH1a2) |
| --- | --- | --- |
| O=C1CCc2cc(NC(=O)c3ccncc3)c(F)cc2N1 [compound 2] | > 10 µM | 10 µM |
| CCc1cnccc1CNc1cc2c(cc1F)NC(=O)CC2 [compound 3] | 4 µM | 3.33 µM |
| CCc1ccccc1C(=O)Nc1cc2c(cc1F)NC(=O)CC2 [compound 4] | 5 µM | 4 µM |
| CCCc1cnccc1C(=O)Nc1cc2c(cc1F)NC(=O)CC2 [compound 5] | 9 µM | 10 µM |
| CC(C)c1cnccc1C(=O)Nc1cc2c(cc1F)NC(=O)CC2 [compound 6] | > 10 µM | 10 µM |
| CC(C)Cc1cnccc1C(=O)Nc1cc2c(cc1F)NC(=O)CC2 [compound 7] | 3.5 µM | 9 µM |
| CCc1cnc(C)cc1C(=O)Nc1cc2c(cc1F)NC(=O)CC2 [compound 8] | 9 µM | 5 µM |
| Cc1ccc(C)c(CNc2ccc3c(c2)CCC(=O)N3)c1 [compound 10] | 9 µM | 3.5 µM |
| Cc1ccc(C(=O)Nc2ccc3c(c2)CCC(=O)N3)cc1C [compound 11] | > 10 µM | > 10 µM |
| Cc1ccc(C(=O)Nc2ccc3c(c2)CCC(=O)N3)c(C)c1 [compound 12] | > 10 µM | > 10 µM |
| Cc1ccccc1C(=O)Nc1ccc2c(c1)CCC(=O)N2 [compound 13] | 5 µM | 2.95 µM |
| O=C1CCc2cc(NCc3ccccc3)ccc2N1 [compound 14] | 10 µM | 10 µM |
| Cc1cnccc1C(=O)Nc1cc2c(cc1F)NC(=O)CC2 [compound 15] | 10 µM | 10 µM |
| Cc1cc(C(=O)Nc2cc3c(cc2F)NC(=O)CC3)ccn1 [compound 16] | 10 µM | 10 µM |
| O=C1CCc2cc(NCc3cc[nH]c3)c(F)cc2N1 [compound 17] | 10 µM | 10 µM |
| CCc1cnccc1C(=O)Nc1ccc2c(c1)CC(C)(C)C(=O)N2 [compound 18] | 2.13 µM | 1.74 µM |
| CCc1cnccc1C(=O)Nc1ccc2c(c1)C(C)(C)CC(=O)N2 [compound 19] | 0.65 µM | 1.05 µM |
| CCc1cnccc1C(=O)Nc1ccc2c(c1)CN(C)C(=O)N2 [compound 20] | > 10 µM | > 100 µM |

| Structure (SMILES) | IC50 (hALDH1a2) | IC50 (mALDH1a2) |
| --- | --- | --- |
| Cc1cnccc1C(=O)Nc1ccc2c(c1)CCC(=O)N2 [compound 21] | 30 µM | 32 µM |
| O=C1CCc2cc(Nc3nccc4ccccc34)ccc2N1 [compound 22] | 20 µM | 25 µM |
| Cc1cc(C(=O)Nc2ccc3c(c2)CCC(=O)N3)ccn1 [compound 24] | 100 µM | 100 µM |
| Cc1cnccc1/C=C/c1ccc2c(c1)CCC(=O)N2 [compound 30] | 9 µM | 11.1 µM |
| CCc1cnccc1/C=C/c1ccc2c(c1)CCC(=O)N2 [compound 33] | 0.258 µM | 0.143 µM |
| CC1(C)CC(=O)Nc2ccc(Nc3nccc4ccccc34)cc21 [compound 34] | 39.2 µM | 30.9 µM |
| O=C1CCc2cc(Nc3ccc4ccccc4n3)ccc2N1 [compound 35] | 0.148 µM | 0.1 µM |
| Cc1cc(C(=O)Nc2cc3c(cc2F)NC(=O)C(C)(C)C3)c(CC(C)C)cn1 [compound 37] | > 10 µM | > 10 µM |
| CCc1cnccc1C(=O)Nc1cc2c(cc1F)NC(=O)C(C)(C)C2 [compound 38] | > 10 µM | > 10 µM |
| CCc1cnccc1C(=O)Nc1cc2ccc(=O)[nH]c2cc1F [compound 39] | 3.5 µM | 8 µM |
| CCc1cnccc1C(=O)Nc1cc2c(cc1F)NC(=O)CC2(C)C [compound 40] | 1.04 µM | 3.33 µM |
| COc1cnccc1C(=O)Nc1cc2c(cc1F)NC(=O)C(C)(C)C2 [compound 41] | 9 µM | 11.1 µM |
| CCc1cc(C#N)ccc1C(=O)Nc1cc2c(cc1F)NC(=O)C(C)(C)C2 [compound 42] | 6.36 µM | 2.6 µM |
| CCc1cnccc1/C=C/c1ccc2c(c1)CC(C)(C)C(=O)N2 [compound 43] | 1.2 µM | 3 µM |
| CCc1cnccc1/C=C/c1cc2c(cc1F)NC(=O)CC2 [compound 45] | 0.293 µM | 3.33 µM |
| CC1(C)Cc2cc(Nc3ccc4ccccc4n3)ccc2NC1=O [compound 46] | 0.248 µM | 0.162 µM |
| O=C1CCc2cc(Nc3ccc4ccccc4n3)c(F)cc2N1 [compound 47] | 0.099 µM | 0.072 µM |
| CC1(C)Cc2cc(Nc3ccc4ccccc4n3)c(F)cc2NC1=O [compound 48] | 0.099 µM | 0.097 µM |

Second part, the molecule after the results:

| IC50 (hALDH1a2) | IC50 (mALDH1a2) | Structure (SMILES) |
| --- | --- | --- |
| > 10 µM | > 10 µM | CCc1c(C(=O)Nc2ccc3c(c2)CCC(=O)N3)cc[nH]c1=O [compound 50] |
| > 10 µM | > 10 µM | CCc1c[nH]c(=O)cc1C(=O)Nc1ccc2c(c1)CCC(=O)N2 [compound 51] |
| 0.32 µM | 0.117 µM | O=C1CCc2cc(NC(=O)c3ccnc4ccccc34)ccc2N1 [compound 52] |
| 1.06 µM | 0.224 µM | O=C1CCc2cc(NC(=O)c3ccncc3C(F)(F)F)ccc2N1 [compound 54] |
| > 10 µM | > 10 µM | CCc1c(C(=O)Nc2ccc3c(c2)CCC(=O)N3)ccnc1C [compound 55] |
| 10 µM | 1.26 µM | CCc1cnc(C)cc1C(=O)Nc1ccc2c(c1)CCC(=O)N2 [compound 56] |
| > 10 µM | > 10 µM | COCc1cnccc1C(=O)Nc1ccc2c(c1)CCC(=O)N2 [compound 57] |
| > 10 µM | > 10 µM | CN(C)Cc1cnccc1C(=O)Nc1ccc2c(c1)CCC(=O)N2 [compound 58] |
| 1.53 µM | 0.935 µM | CCCc1cnccc1C(=O)Nc1ccc2c(c1)CCC(=O)N2 [compound 60] |
| 2.04 µM | 1.81 µM | CCc1cnccc1C(=O)Nc1ccc2c(c1)CC1(CC1)C(=O)N2 [compound 61] |
| > 10 µM | > 10 µM | CCc1cnccc1C(=O)Nc1ccc2c(c1)CC(C)(CC)C(=O)N2 (centres unmarked) [compound 62] |
| 0.538 µM | 0.297 µM | CCc1cnccc1C(=O)Nc1ccc2c(c1)CC(C)C(=O)N2 (centres unmarked) [compound 63] |
| 2.79 µM | 5 µM | CCc1cnccc1C(=O)Nc1ccc2c(c1)C(C)CC(=O)N2 (centres unmarked) [compound 64] |
| > 10 µM | 3.44 µM | Cc1cc(C(=O)Nc2ccc3c(c2)CC2(CC2)C(=O)N3)c(Cl)cn1 [compound 68] |
| > 10 µM | > 10 µM | CC(C)=Cc1cnc(C)cc1C(=O)Nc1ccc2c(c1)CC(C)(C)C(=O)N2 [compound 69] |
| > 10 µM | 2.96 µM | CCc1cnccc1C(=O)Nc1cc2c(cc1Cl)NC(=O)CC2 [compound 70] |
| 0.963 µM | 0.747 µM | C=CCc1cnccc1C(=O)Nc1ccc2c(c1)CCC(=O)N2 [compound 71] |
| > 10 µM | > 10 µM | CCc1cccnc1C(=O)Nc1cc2c(cc1Cl)NC(=O)CC2 [compound 72] |
| > 10 µM | > 10 µM | CCc1c[n+]([O-])ccc1C(=O)Nc1ccc2c(c1)CCC(=O)N2 [compound 73] |
| 6.56 µM | 4.31 µM | CCc1cc(=O)n(C)cc1C(=O)Nc1ccc2c(c1)CCC(=O)N2 [compound 76] |
| 0.46 µM | 0.366 µM | CCc1cnc(F)cc1C(=O)Nc1ccc2c(c1)CCC(=O)N2 [compound 78] |
| 1.46 µM | 0.849 µM | CCc1cnc(C)cc1C(=O)Nc1cc2c(cc1F)NC(=O)CC2 [compound 79] |
| 0.384 µM | 0.324 µM | CCc1cnc(Cl)cc1C(=O)Nc1cc2c(cc1F)NC(=O)CC2 [compound 80] |
| 0.376 µM | 0.522 µM | O=C1CCc2cc(NC(=O)c3ccncc3CC3CC3)c(F)cc2N1 [compound 81] |
| > 10 µM | > 10 µM | CCc1cnccc1C(=O)Nc1cc2c(cc1C#N)NC(=O)CC2 [compound 84] |
| 10 µM | 0.084 µM | N#Cc1cccc2nc(Nc3ccc4c(c3)CCC(=O)N4)ccc12 [compound 86] |
| 0.419 µM | 0.149 µM | Cc1cccc2nc(Nc3ccc4c(c3)CCC(=O)N4)ccc12 [compound 87] |
| > 10 µM | > 10 µM | N#Cc1ccc2nc(Nc3ccc4c(c3)CCC(=O)N4)ccc2c1 [compound 88] |
